Legend:
Format in all cases: cell-based, human
[1] = test system: AGS; assay: Cell viability drug screen, 12-point dose-response AUC; details: 72 hours; for Average Area Under the Viability Curve (AUC), AUC norm value: AGS cells (non-SEM subtype)
Outline: (§1)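 Luminescent viability readings, taken 15 min after reagent addition at room temperature, were normalized to the 0.5% DMSO control to build 12-point dose-response curves. Trapezoidal integration gave the AUC. Cells had been plated at 5×10^3 per well and then exposed to half-log dilutions for 72 h.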

[2] = test system: Hs746T; assay: as above; details: 72 hours; for Average Area Under the Viability Curve (AUC), AUC norm value: Hs746T cells (SEM subtype)
Outline: as §1

[3] = test system: KATO3; assay: as above; details: KATO3 cells, 72 hours
Outline: as §1

[4] = test system: MKN1; assay: as above; details: MKN1 cells, 72 hours
Outline: as §1

[5] = test system: MKN28; assay: as above; details: MKN28 cells, 72 hours
Outline: as §1

[6] = test system: MKN45; assay: as above; details: 72 hours; for Average Area Under the Viability Curve (AUC), AUC norm value: MKN45 cells (non-SEM subtype)
Outline: as §1

[7] = test system: MKN74; assay: as above; details: MKN74 cells, 72 hours
Outline: as §1

[8] = test system: NCC19; assay: as above; details: NCC19 cells, 72 hours
Outline: as §1

[9] = test system: NCC20; assay: as above; details: NCC20 cells, 72 hours
Outline: as §1

[10] = test system: NCC24; assay: as above; details: NCC24 cells, 72 hours
Outline: as §1

[11] = test system: NCC59; assay: as above; details: NCC59 cells, 72 hours
Outline: as §1

[12] = test system: NCI_N87; assay: as above; details: NCI_N87 cells, 72 hours
Outline: as §1

[13] = test system: OCUM1; assay: as above; details: OCUM1 cells, 72 hours
Outline: as §1

[14] = test system: SK4; assay: as above; details: 72 hours; for Average Area Under the Viability Curve (AUC), AUC norm value: SK4 cells (SEM subtype)
Outline: as §1

[15] = test system: SNU16; assay: as above; details: SNU16 cells, 72 hours
Outline: as §1

[16] = test system: SNU1750; assay: as above; details: 72 hours; for Average Area Under the Viability Curve (AUC), AUC norm value: SNU1750 cells (SEM subtype)
Outline: as §1

[17] = test system: SNU1967; assay: as above; details: SNU1967 cells, 72 hours
Outline: as §1

[18] = test system: SNU1; assay: as above; details: SNU1 cells, 72 hours
Outline: as §1

[19] = test system: SNU216; assay: as above; details: 72 hours; for Average Area Under the Viability Curve (AUC), AUC norm value: SNU216 cells (non-SEM subtype)
Outline: as §1

[20] = test system: SNU484; assay: as above; details: 72 hours; for Average Area Under the Viability Curve (AUC), AUC norm value: SNU484 cells (SEM subtype)
Outline: as §1

[21] = test system: SNU601; assay: as above; details: SNU601 cells, 72 hours
Outline: as §1

[22] = test system: SNU620; assay: as above; details: SNU620 cells, 72 hours
Outline: as §1

[23] = test system: SNU638; assay: as above; details: SNU638 cells, 72 hours
Outline: as §1

[24] = test system: SNU668; assay: as above; details: 72 hours; for Average Area Under the Viability Curve (AUC), AUC norm value: SNU668 cells (SEM subtype)
Outline: as §1

[25] = test system: SNU719; assay: as above; details: SNU719 cells, 72 hours
Outline: as §1

[26] = test system: YCC11; assay: as above; details: 72 hours; for Average Area Under the Viability Curve (AUC), AUC norm value: YCC11 cells (SEM subtype)
Outline: as §1

[27] = test system: YCC2; assay: as above; details: YCC2 cells, 72 hours
Outline: as §1

[28] = test system: YCC3; assay: as above; details: YCC3 cells, 72 hours
Outline: as §1

[29] = test system: FU97; assay: as above; parameters: Average Area Under the Viability Curve (AUC), AUC norm value: scale not given here; details: FU97 cells, 72 hours
Outline: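 Trapezoidal AUC of a 12-point, DMSO-normalized dose-response curve. Luminescent viability was measured after 72 h of exposure at 37° C to half-log serial dilutions (0.5% DMSO control), dosed 24 h after plating FU97 cells at 5×10^3 per well.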

[30] = test system: non-SEM-type gastric cancer cell line; assay: Cell viability drug screen, AUC summary over non-SEM-type lines; details: in the non-SEM-type gastric cancer cell line

SMILES: CCCCCCCCCCCCCCCC[N+](C)(C)CCN(Cc1ccc(OC)cc1)c1ncccn1 [Thonzonium Bromide]
- Average Area Under the Viability Curve (AUC), AUC norm value [1]: −0.4105
- Average Area Under the Viability Curve (AUC), AUC norm value [2]: 0
- Average Area Under the Viability Curve (AUC), AUC norm value [3]: −0.127
- Average Area Under the Viability Curve (AUC), AUC norm value [4]: −0.2414
- Average Area Under the Viability Curve (AUC), AUC norm value [5]: 0.07021
- Average Area Under the Viability Curve (AUC), AUC norm value [6]: 0.1213
- Average Area Under the Viability Curve (AUC), AUC norm value [7]: −0.9967
- Average Area Under the Viability Curve (AUC), AUC norm value [8]: 0.2995
- Average Area Under the Viability Curve (AUC), AUC norm value [9]: −0.6042
- Average Area Under the Viability Curve (AUC), AUC norm value [10]: −0.2465
- Average Area Under the Viability Curve (AUC), AUC norm value [11]: 0.6096
- Average Area Under the Viability Curve (AUC), AUC norm value [12]: 0.415
- Average Area Under the Viability Curve (AUC), AUC norm value [13]: 0.2209
- Average Area Under the Viability Curve (AUC), AUC norm value [14]: −1.033
- Average Area Under the Viability Curve (AUC), AUC norm value [15]: −0.9128
- Average Area Under the Viability Curve (AUC), AUC norm value [16]: 0.06729
- Average Area Under the Viability Curve (AUC), AUC norm value [17]: 0.01501
- Average Area Under the Viability Curve (AUC), AUC norm value [18]: 1.478
- Average Area Under the Viability Curve (AUC), AUC norm value [19]: 0.2737
- Average Area Under the Viability Curve (AUC), AUC norm value [20]: −0.9082
- Average Area Under the Viability Curve (AUC), AUC norm value [21]: 2.228
- Average Area Under the Viability Curve (AUC), AUC norm value [22]: −0.2404
- Average Area Under the Viability Curve (AUC), AUC norm value [23]: −0.4973
- Average Area Under the Viability Curve (AUC), AUC norm value [24]: 0.3151
- Average Area Under the Viability Curve (AUC), AUC norm value [25]: 1.9
- Average Area Under the Viability Curve (AUC), AUC norm value [26]: −0.8304
- Average Area Under the Viability Curve (AUC), AUC norm value [27]: −0.4255
- Average Area Under the Viability Curve (AUC), AUC norm value [28]: 0.6163
- Average Area Under the Viability Curve (AUC), AUC norm value [29]: −0.03008
- AUC value [30]: high

SMILES: c1ccc2c(-c3cnn4cc(-c5ccc(N6CCNCC6)cc5)cnc34)ccnc2c1 [LDN193189]
- Average Area Under the Viability Curve (AUC), AUC norm value [1]: −0.1896
- Average Area Under the Viability Curve (AUC), AUC norm value [2]: −0.2954
- Average Area Under the Viability Curve (AUC), AUC norm value [3]: 0.6205
- Average Area Under the Viability Curve (AUC), AUC norm value [4]: 0
- Average Area Under the Viability Curve (AUC), AUC norm value [5]: 0.5758
- Average Area Under the Viability Curve (AUC), AUC norm value [6]: 0.9516
- Average Area Under the Viability Curve (AUC), AUC norm value [7]: −1.246
- Average Area Under the Viability Curve (AUC), AUC norm value [8]: 0.06094
- Average Area Under the Viability Curve (AUC), AUC norm value [9]: 0.02059
- Average Area Under the Viability Curve (AUC), AUC norm value [10]: −0.1464
- Average Area Under the Viability Curve (AUC), AUC norm value [11]: 1.892
- Average Area Under the Viability Curve (AUC), AUC norm value [12]: 1.172
- Average Area Under the Viability Curve (AUC), AUC norm value [13]: −1.113
- Average Area Under the Viability Curve (AUC), AUC norm value [14]: −0.5339
- Average Area Under the Viability Curve (AUC), AUC norm value [15]: 1.525
- Average Area Under the Viability Curve (AUC), AUC norm value [16]: −0.4695
- Average Area Under the Viability Curve (AUC), AUC norm value [17]: −1.419
- Average Area Under the Viability Curve (AUC), AUC norm value [18]: 0.8706
- Average Area Under the Viability Curve (AUC), AUC norm value [19]: −0.7838
- Average Area Under the Viability Curve (AUC), AUC norm value [20]: −0.5999
- Average Area Under the Viability Curve (AUC), AUC norm value [21]: 3.699
- Average Area Under the Viability Curve (AUC), AUC norm value [22]: −2.131
- Average Area Under the Viability Curve (AUC), AUC norm value [23]: −0.9699
- Average Area Under the Viability Curve (AUC), AUC norm value [24]: 0.06394
- Average Area Under the Viability Curve (AUC), AUC norm value [25]: 0.6043
- Average Area Under the Viability Curve (AUC), AUC norm value [26]: −0.7359
- Average Area Under the Viability Curve (AUC), AUC norm value [27]: 0.1163
- Average Area Under the Viability Curve (AUC), AUC norm value [28]: 0.08342
- Average Area Under the Viability Curve (AUC), AUC norm value [29]: −0.1434
- AUC value [30]: high

SMILES: COC(=O)Nc1nc2ccc(Sc3ccccc3)cc2[nH]1 [Fenbendazole]
- area under the viability curve (AUC), normalized ([1]; AGS cells, 12-point dose-response): −1.16
- area under the viability curve (AUC), normalized ([2]; Hs746T cells, 12-point dose-response): 0.5728
- area under the viability curve (AUC), normalized ([3]; 12-point dose-response): 2.344
- area under the viability curve (AUC), normalized ([4]; 12-point dose-response): −0.0568
- area under the viability curve (AUC), normalized ([5]; 12-point dose-response): −0.7877
- area under the viability curve (AUC), normalized ([6]; MKN45 cells, 12-point dose-response): 1.407
- area under the viability curve (AUC), normalized ([7]; 12-point dose-response): −0.2802
- area under the viability curve (AUC), normalized ([8]; 12-point dose-response): −0.2779
- area under the viability curve (AUC), normalized ([9]; 12-point dose-response): −0.5211
- area under the viability curve (AUC), normalized ([10]; 12-point dose-response): −0.8488
- area under the viability curve (AUC), normalized ([11]; 12-point dose-response): 1.9513
- area under the viability curve (AUC), normalized ([12]; 12-point dose-response): −1.124
- area under the viability curve (AUC), normalized ([13]; 12-point dose-response): 1.283
- area under the viability curve (AUC), normalized ([14]; SK4 cells, 12-point dose-response): −0.2953
- area under the viability curve (AUC), normalized ([15]; 12-point dose-response): 1.2297
- area under the viability curve (AUC), normalized ([16]; SNU1750 cells, 12-point dose-response): 0.2596
- area under the viability curve (AUC), normalized ([17]; 12-point dose-response): 0.184
- area under the viability curve (AUC), normalized ([18]; 12-point dose-response): 0.1629
- area under the viability curve (AUC), normalized ([19]; SNU216 cells, 12-point dose-response): 1.005
- area under the viability curve (AUC), normalized ([20]; SNU484 cells, 12-point dose-response): −0.08111
- area under the viability curve (AUC), normalized ([21]; 12-point dose-response): 0.599
- area under the viability curve (AUC), normalized ([22]; 12-point dose-response): −1.425
- area under the viability curve (AUC), normalized ([23]; 12-point dose-response): −0.3689
- area under the viability curve (AUC), normalized ([24]; SNU668 cells, 12-point dose-response): 0
- area under the viability curve (AUC), normalized ([25]; 12-point dose-response): 3.382
- area under the viability curve (AUC), normalized ([26]; YCC11 cells, 12-point dose-response): −0.7305
- area under the viability curve (AUC), normalized ([27]; 12-point dose-response): 0.5695
- area under the viability curve (AUC), normalized ([28]; 12-point dose-response): 1.376
- area under the viability curve (AUC), normalized ([29]; 12-point dose-response): −1.854
- AUC value [30]: high
